# Assay results as given in US6677141B2, “Edible compositions of Bacillus subtilis natto cells containing water-soluble vitamin K” (Honda Trading Corporation, priority 1998, dated 2004).
# Legend:
# [1] = Photostability: amount of MK-7 on exposure to the light from a fluorescent lamp; format: physicochemical; conditions: room temperature
# Method: This dry MK-7 was exposed to the light from a fluorescent lamp at room temperature for 5 hours. In this case, the amount of MK-7 was measured along the course of time in the same manner as in Example 6. The results are shown in FIG. 7 (indicated by empty circle (◯) marks).
# The fat-soluble MK-7 thus prepared was dried to obtain a dry product of MK-7. This dry product of MK-7 was irradiated with the light from a fluorescent lamp at room temperature for 5 hours and then tested for the fat-soluble MK-7 content in the same manner as in Example 6. The results are shown in FIG. 7 (indicated by filled square (▪) marks).
# [2] = MK-7 level in plasma after oral ingestion by healthy adults (HPLC); format: in vivo, human (healthy adults)
# Method: The measurement of the amounts of MK-7, MK-4, and vitamin K1 by the high-performance liquid chromatography (HPLC) makes use of the phenomenon that vitamin K is reduced by a platinum-alumina catalyst into a hydroquinone compound and made to form a fluorescent substance. To be more specific, this measurement is carried out under the following conditions.
# Then, five healthy adults were each caused to ingest 1 g of the dry cells at 10 o'clock every morning. After the elapse of a prescribed interval, blood was collected from each of the healthy adults and was tested for MK-7 level in the plasma. The time-course changes of MK-7 level in the plasma were investigated.
# Five healthy adults were each caused to ingest 1 g of dry cells (containing 1.8×10^10 live cells) of Nitto strain (made by Nitto Yakuhin Kogyo K.K. in Kyoto) at 10 o'clock every morning. Then, blood was collected from the adults along the course of time. The plasma was separated from the collected blood and tested for MK-7 level in the plasma in the same manner as in Example 1.
# As a control, five healthy adults were caused to ingest purified MK-7 in place of the dry cells of Bacillus subtilis natto mentioned above. The plasma similarly obtained from each of the healthy adults was tested for MK-7 level in the plasma.
# The cultured product thus obtained was washed with distilled water and then freeze-dried. Five healthy adults (A to E) were each caused to ingest an enteric capsule in which 1 g of freeze-dried product (containing 5×10^11 cells/g of dried product) was filled. In this case, the MK-7 content was determined by the Soxhlet-HPLC method method, to find to be 708.0 μg/g of dried product. At prescribed points, blood was collected from the adults along the course of time. The plasma MK-7 level was tested in the same manner as in Example 1.
# Five healthy adults (21 to 63 years old, male) requested to abstain from breakfast were each made to ingest 1,000 μg of the water-soluble vitamin K derivative containing the water-soluble MK-7 derivative prepared in Example 9 at 10 o'clock in the morning. Blood was collected from the healthy adults along the course of time after the ingestion and measured for the level of the water-soluble MK-7 derivative in plasma. As a control, the experiment was repeated with the ingestion of 1,000 μg of purified MK-7 instead.
# [3] = oral, 1 g dry cells (about 1.8 × 10^10 cells/g) or about 51.0 μg purified MK-7, average ± SD, n = 5
Exposure time to the fluorescent lamp after which the amount of MK-7 could not be measured [1],"Level in plasma on the 24th hour after the ingestion ([2]; Example 14, oral 1,000 μg)","Concentration of MK-7 in plasma (after the elapse of) 0 hour ([2]; before ingestion, oral, 1 g dry cells (about 1.8 × 10^10 cells/g) or about 51.0 μg purified MK-7, average ± standard deviation, n = 5)","Concentration of MK-7 in plasma (after the elapse of) 4 hours [2, 3]","Concentration of MK-7 in plasma (after the elapse of) 8 hours [2, 3]","Concentration of MK-7 in plasma (after the elapse of) 12 hours [2, 3]","Concentration of MK-7 in plasma (after the elapse of) 24 hours [2, 3]","Concentration of MK-7 in plasma (after the elapse of) 32 hours [2, 3]","Concentration of MK-7 in plasma (after the elapse of) 48 hours [2, 3]",Compound
about 3 hours,–,–,–,–,–,–,–,–,CC(C)=CCC/C(C)=C/CC/C(C)=C/CC/C(C)=C/CC/C(C)=C/CC/C(C)=C/CC/C(C)=C/CC1=C(C)C(=O)c2ccccc2C1=O [fat-soluble MK-7]
–,3.2 ± 2.3 ng/mL,1.3 ± 1.1,11.2 ± 2.8,7.3 ± 1.6,4.3 ± 1.0,2.2 ± 1.0,1.4 ± 0.7 ^┘,1.4 ± 0.9 ^┘,"CC(C)=CCC/C(C)=C/CC/C(C)=C/CC/C(C)=C/CC/C(C)=C/CC/C(C)=C/CC/C(C)=C/CC1=C(C)C(=O)c2ccccc2C1=O [Purified MK-7, menaquinone-7]"
